Read-outs that look alike come from different tables or passages of the source.
Legend:
[1] = target: human orexin-2 receptor (Homo sapiens (Human), UniProt O43614); test: In vitro assay: intracellular calcium measurements (FLIPR), antagonistic activity; type: cell-based; conditions: CHO cells, 3 nM orexin-A, marked values are geometric means of n = 2-6, read-out: IC50 OX2
[2] = target: human orexin-1 receptor (Homo sapiens (Human), UniProt O43613); test: as above; type: cell-based; conditions: CHO cells, 3 nM orexin-A, marked values are geometric means of n = 2-6, read-out: IC50 OX1
human orexin-1 receptor, sequence (O43613 whole entry): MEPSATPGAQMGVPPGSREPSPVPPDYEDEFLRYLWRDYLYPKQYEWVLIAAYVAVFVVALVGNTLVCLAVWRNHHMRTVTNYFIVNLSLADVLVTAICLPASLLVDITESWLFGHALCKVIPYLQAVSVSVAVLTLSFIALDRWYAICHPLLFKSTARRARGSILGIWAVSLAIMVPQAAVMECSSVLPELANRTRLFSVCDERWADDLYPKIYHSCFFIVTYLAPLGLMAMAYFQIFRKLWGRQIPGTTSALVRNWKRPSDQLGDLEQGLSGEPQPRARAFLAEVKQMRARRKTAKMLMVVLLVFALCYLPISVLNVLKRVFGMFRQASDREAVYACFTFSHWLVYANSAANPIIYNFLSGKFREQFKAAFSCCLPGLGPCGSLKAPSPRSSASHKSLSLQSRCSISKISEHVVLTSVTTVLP

[3] = compound incubation time of 10 min

human orexin-2 receptor, sequence (O43614 whole entry): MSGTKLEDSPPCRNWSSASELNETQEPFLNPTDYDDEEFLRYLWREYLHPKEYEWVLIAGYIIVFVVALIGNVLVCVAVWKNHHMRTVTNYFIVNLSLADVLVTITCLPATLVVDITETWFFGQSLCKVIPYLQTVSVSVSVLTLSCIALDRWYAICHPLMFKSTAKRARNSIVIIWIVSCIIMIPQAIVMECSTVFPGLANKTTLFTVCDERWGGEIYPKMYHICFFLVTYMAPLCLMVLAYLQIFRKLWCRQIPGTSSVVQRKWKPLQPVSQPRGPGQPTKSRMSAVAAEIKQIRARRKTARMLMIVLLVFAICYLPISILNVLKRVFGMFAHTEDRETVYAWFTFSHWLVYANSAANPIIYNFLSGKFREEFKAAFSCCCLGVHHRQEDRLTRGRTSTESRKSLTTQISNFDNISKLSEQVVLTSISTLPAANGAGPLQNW

| SMILES | IC50 ([1]; compound incubation 120 min) [nM] | IC50 ([2]; compound incubation 120 min) [nM] | IC50 [1, 3] [nM] | IC50 [2, 3] [nM] |
| --- | --- | --- | --- | --- |
| COc1cccc(OC)c1C1CCCCC(=O)N1Cc1cccc(N2CCCC2)c1 (stereo not drawn) [Example 93, 7-(2,6-dimethoxyphenyl)-1-(3-(pyrrolidin-1-yl)benzyl)azepan-2-one] | 16 | 3 | – | – |
| COc1cccc(OC)c1C1CCCCC(=O)N1Cc1cnn(-c2ccccc2)c1 (stereo not drawn) [Example 94, 7-(2,6-dimethoxyphenyl)-1-((1-phenyl-1H-pyrazol-4-yl)methyl)azepan-2-one] | 378 | 121 | – | – |
| COc1cccc(OC)c1C1CCCCC(=O)N1Cc1ccc2sc(C)nc2c1 (stereo not drawn) [Example 95, 7-(2,6-dimethoxyphenyl)-1-((2-methylbenzo[d]thiazol-5-yl)methyl)azepan-2-one] | 29 | 8 | – | – |
| COc1cccc(OC)c1C1CCCCC(=O)N1Cc1cccc(-c2ccncc2)c1 (stereo not drawn) [Example 96, 7-(2,6-dimethoxyphenyl)-1-(3-(pyridin-4-yl)benzyl)azepan-2-one] | 85 | 16 | – | – |
| COc1cccc(OC)c1C1CCCCC(=O)N1Cc1cccc(-n2cccn2)c1 (stereo not drawn) [Example 97, 1-(3-(1H-pyrazol-1-yl)benzyl)-7-(2,6-dimethoxyphenyl)azepan-2-one] | 20 | 5 | – | – |
| COc1cccc(OC)c1C1CCCCC(=O)N1Cc1csc(-c2ccccc2)n1 (stereo not drawn) [Example 98, 7-(2,6-dimethoxyphenyl)-1-((2-phenylthiazol-4-yl)methyl)azepan-2-one] | 6 | 6 | – | – |
| COc1cccc(OC)c1C1CCCCC(=O)N1Cc1cccc(-c2cncs2)c1 (stereo not drawn) [Example 99, 7-(2,6-dimethoxyphenyl)-1-(3-(thiazol-5-yl)benzyl)azepan-2-one] | 34 | 7 | – | – |
| COc1cccc(OC)c1C1CCCCC(=O)N1Cc1cccc(-c2ncc(C)s2)c1 (stereo not drawn) [Example 100, 7-(2,6-dimethoxyphenyl)-1-(3-(5-methylthiazol-2-yl)benzyl)azepan-2-one] | 3 | 1 | – | – |
| COc1cccc(OC)c1C1CCCCC(=O)N1Cc1cccc(-n2nccn2)c1 (stereo not drawn) [Example 101, 1-(3-(2H-1,2,3-triazol-2-yl)benzyl)-7-(2,6-dimethoxyphenyl)azepan-2-one] | 33 | 3 | – | – |
| COc1cccc(OC)c1C1CCCCC(=O)N1Cc1cccc(-c2cscn2)c1 (stereo not drawn) [Example 102, 7-(2,6-dimethoxyphenyl)-1-(3-(thiazol-4-yl)benzyl)azepan-2-one] | 19 | 6 | – | – |
| COc1cccc(OC)c1C1CCCCC(=O)N1Cc1ccnc(-n2cccn2)c1 (stereo not drawn) [Example 103, 1-((2-(1H-pyrazol-1-yl)pyridin-4-yl)methyl)-7-(2,6-dimethoxyphenyl)azepan-2-one] | 86 | 8 | – | – |
| COc1cccc(OC)c1C1CCCCC(=O)N1Cc1cccc(-n2cccn2)n1 (stereo not drawn) [Example 104, 1-((6-(1H-pyrazol-1-yl)pyridin-2-yl)methyl)-7-(2,6-dimethoxyphenyl)azepan-2-one] | 429 | 38 | – | – |
| COc1cccc(OC)c1C1CCCCC(=O)N1Cc1ccc2nc(C)sc2c1 (stereo not drawn) [Example 105, 7-(2,6-dimethoxyphenyl)-1-((2-methylbenzo[d]thiazol-6-yl)methyl)azepan-2-one] | 258 | 155 | – | – |
| COc1cccc(OC)c1C1CCCCC(=O)N1Cc1cccc(-c2ccccn2)c1F (stereo not drawn) [Example 106, 7-(2,6-dimethoxyphenyl)-1-(2-fluoro-3-(pyridin-2-yl)benzyl)azepan-2-one] | 60 | 14 | – | – |
| COc1cccc(OC)c1C1CCCCC(=O)N1Cc1ccc(F)c(-c2ccccn2)c1 (stereo not drawn) [Example 107, 7-(2,6-dimethoxyphenyl)-1-(4-fluoro-3-(pyridin-2-yl)benzyl)azepan-2-one] | 22 | 4 | – | – |
| COc1cc(OC)c(C2CCC(=O)N2Cc2ccc(OC(F)(F)F)cc2)c(OC)c1 (stereo not drawn) [Example 108, 1-(4-(trifluoromethoxy)benzyl)-5-(2,4,6-trimethoxyphenyl)pyrrolidin-2-one] | – | – | 271 | 1930 |
| COc1cccc(OC)c1C1CCC(=O)N1Cc1cnc2ccccc2c1 (stereo not drawn) [Example 109, 5-(2,6-dimethoxyphenyl)-1-(quinolin-3-ylmethyl)pyrrolidin-2-one] | – | – | 44 | 227 |
| COc1cccc(OC)c1C1CCC(=O)N1Cc1ccc2ccccc2n1 (stereo not drawn) [Example 110, 5-(2,6-dimethoxyphenyl)-1-(quinolin-2-ylmethyl)pyrrolidin-2-one] | – | – | 136 | 409 |
| COc1cccc(OC)c1C1CCC(=O)N1Cc1ccc2ccccc2c1 (stereo not drawn) [Example 111, 5-(2,6-dimethoxyphenyl)-1-(naphthalen-2-ylmethyl)pyrrolidin-2-one] | – | – | 113 | 168 |
| COc1cccc(OC)c1C1CCC(=O)N1Cc1cnc(OC(F)F)c(Cl)c1 (stereo not drawn) [Example 112, 1-((5-chloro-6-(difluoromethoxy)pyridin-3-yl)methyl)-5-(2,6-dimethoxyphenyl)pyrrolidin-2-one] | – | – | 107 | 646 |

| SMILES | IC50 ([1]; compound incubation 120 min) [nM] | IC50 ([2]; compound incubation 120 min) [nM] | IC50 [1, 3] [nM] | IC50 [2, 3] [nM] |
| --- | --- | --- | --- | --- |
| COc1cccc(OC)c1C1CCC(=O)N1Cc1cccc(-c2ccccc2)c1 (stereo not drawn) [Example 113, 1-([1,1′-biphenyl]-3-ylmethyl)-5-(2,6-dimethoxyphenyl)pyrrolidin-2-one] | 34 | 29 | – | – |
| COc1cccc(OC)c1C1CCC(=O)N1Cc1ccc(-c2ccccc2)cc1 (stereo not drawn) [Example 114, 1-([1,1′-biphenyl]-4-ylmethyl)-5-(2,6-dimethoxyphenyl)pyrrolidin-2-one] | 184 | 149 | – | – |
| COc1cccc(OC)c1C1CCC(=O)N1Cc1cccc(-c2cccnc2)c1 (stereo not drawn) [Example 115, 5-(2,6-dimethoxyphenyl)-1-(3-(pyridin-3-yl)benzyl)pyrrolidin-2-one] | 249 | 217 | – | – |
| COc1cccc(OC)c1C1CCC(=O)N1Cc1cccc2ccccc12 (stereo not drawn) [Example 116, 5-(2,6-dimethoxyphenyl)-1-(naphthalen-1-ylmethyl)pyrrolidin-2-one] | 291 | 789 | – | – |
| COc1cccc(OC)c1C1CCC(=O)N1Cc1cccc(Oc2ccccc2)c1 (stereo not drawn) [Example 117, 5-(2,6-dimethoxyphenyl)-1-(3-phenoxybenzyl)pyrrolidin-2-one] | 65 | 211 | – | – |
| COc1cccc(OC)c1C1CCC(=O)N1Cc1ccc(Oc2ccccc2)cc1 (stereo not drawn) [Example 118, 5-(2,6-dimethoxyphenyl)-1-(4-phenoxybenzyl)pyrrolidin-2-one] | 58 | 233 | – | – |
| COc1cccc(OC)c1C1CCC(=O)N1Cc1cccc(-c2ccccn2)c1 (stereo not drawn) [Example 119, 5-(2,6-dimethoxyphenyl)-1-(3-(pyridin-2-yl)benzyl)pyrrolidin-2-one] | 56 | 57 | – | – |
| COc1cccc(OC)c1C1CCC(=O)N1Cc1ccnc(-c2ccccc2)c1 (stereo not drawn) [Example 120, 5-(2,6-dimethoxyphenyl)-1-((2-phenylpyridin-4-yl)methyl)pyrrolidin-2-one] | 121 | 64 | – | – |
| COc1cccc(OC)c1C1CCC(=O)N1Cc1cccc(-c2ccccc2)n1 (stereo not drawn) [Example 121, 5-(2,6-dimethoxyphenyl)-1-((6-phenylpyridin-2-yl)methyl)pyrrolidin-2-one] | 105 | 183 | – | – |
| COc1cccc(OC)c1C1CC(C)C(=O)N1Cc1cccc(-c2ccccc2)c1 (stereo not drawn) [Example 122, 1-([1,1′-biphenyl]-3-ylmethyl)-5-(2,6-dimethoxyphenyl)-3-methylpyrrolidin-2-one] | 70 | 18 | – | – |
| COc1cccc(OC)c1C1CC(C)C(=O)N1Cc1cccc(N2CCCC2)c1 (stereo not drawn) [Example 123, 5-(2,6-dimethoxyphenyl)-3-methyl-1-(3-(pyrrolidin-1-yl)benzyl)pyrrolidin-2-one] | 74 | 13 | – | – |
| COc1cccc(OC)c1C1CCC(=O)N1Cc1cccc(-c2nccs2)c1 (stereo not drawn) [Example 124, 5-(2,6-dimethoxyphenyl)-1-(3-(thiazol-2-yl)benzyl)pyrrolidin-2-one] | 89 | 23 | – | – |
| COc1cccc(OC)c1C1CCC(=O)N1Cc1cccc(-c2csc(C)n2)c1 (stereo not drawn) [Example 125, 5-(2,6-dimethoxyphenyl)-1-(3-(2-methylthiazol-4-yl)benzyl)pyrrolidin-2-one] | 82 | 11 | – | – |
| COc1cccc(OC)c1C1CCC(=O)N1Cc1cccc(-n2cccn2)c1 (stereo not drawn) [Example 126, 1-(3-(1H-pyrazol-1-yl)benzyl)-5-(2,6-dimethoxyphenyl)pyrrolidin-2-one] | 839 | 165 | – | – |
| COc1cccc(OC)c1C1CCC(=O)N1Cc1ccc2oc3ccccc3c2c1 (stereo not drawn) [Example 127, 1-(dibenzo[b,d]furan-2-ylmethyl)-5-(2,6-dimethoxyphenyl)pyrrolidin-2-one] | 20 | 14 | – | – |
| COc1cccc(OC)c1C1CCC(=O)N1Cc1nc2ccccc2s1 (stereo not drawn) [Example 128, 1-(benzo[d]thiazol-2-ylmethyl)-5-(2,6-dimethoxyphenyl)pyrrolidin-2-one] | 2050 | 3880 | – | – |
| COc1cccc(OC)c1C1CCC(=O)N1Cc1cccc(N2CCCCC2)c1 (stereo not drawn) [Example 129, 5-(2,6-dimethoxyphenyl)-1-(3-(piperidin-1-yl)benzyl)pyrrolidin-2-one] | 858 | 198 | – | – |
| COc1cccc(OC)c1C1CCC(=O)N1Cc1cccc(N2CCCCC2)n1 (stereo not drawn) [Example 130, 5-(2,6-dimethoxyphenyl)-1-((6-(piperidin-1-yl)pyridin-2-yl)methyl)pyrrolidin-2-one] | 690 | 636 | – | – |
| COc1cccc(OC)c1C1CC(C)C(=O)N1Cc1ccc2ccccc2c1 (stereo not drawn) [Example 131, 5-(2,6-dimethoxyphenyl)-3-methyl-1-(naphthalen-2-ylmethyl)pyrrolidin-2-one] | 455 | 27 | – | – |

— patent US9242970B2 (ACTELION PHARMACEUTICALS LTD., priority 2010, dated 2016)
